The record followed here is PubChem BioAssay (NCI).

Molecules are shown by their SMILES. Values joined by “and” are separate entries in the source; they are usually repeats but may differ in a detail not shown here. Equal entries are not always repeated.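 A five-concentration, 48-hour dose response in 96-well plates underlies each endpoint, interpolated linearly between surrounding concentrations. Here, GI50 denotes the concentration required for 50% inhibition of growth. The concentration for full growth arrest is given as TGI.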 Bounds are passed on as bounds.

Common to all, as to experiment: NCI anticancer screen, dose series, 48 h
Test [1] concerns ACHN renal.
Test [2] deals with HCC-2998 colon.
For test [3], the system named is HT29 colon.
The test system of test [4] is MALME-3M melanoma.
The subject of test [5] is OVCAR-5 ovarian.
Test [6] has as its system SK-MEL-2 melanoma.
For test [7], the system named is SK-MEL-28 melanoma.
Test [8] concerns UO-31 renal.
Test [9] concerns MDA-MB-231 breast.
Test [10] relates to PC-3 prostate.

In the case of `O=S(O)c1cc(Cl)c(O)c(Cl)c1`, the TGI in test [1], in test [2], in [3], in test [4], in [5] and in test [6] was more than 100 µM throughout. In addition, the TGI in test [7] and in test [8] was more than 100 µM each time.

With `Cn1c(=O)c2[nH]c(SC/C(=N/O)c3ccc(Br)cc3)nc2n(C)c1=O`, the GI50 in [4] is 2.4 µM; in [9], 2.14 µM; in test [10], more than 100 µM; in test [6], 2.08 µM. In addition, the TGI in test [4] is 5.22 µM; in test [9], 4.38 µM; in test [10], more than 100 µM; in test [6] it was 4.26 µM.

`COc1ccc2c3/c(=C\c4ccc(N(C)C)cc4)c4ccccc4n3[n+](C)c2c1`: the GI50 was 0.404 µM in test [1]; less than 0.0378 µM in test [2]; 0.123 µM in [3]; 0.0352 µM in test [9]; 0.472 µM in test [5]; 0.124 µM in [10]. The GI50 was 0.173 µM in test [7] and 0.484 µM in test [8]. The TGI in [2] was 0.31 µM; in test [9], 0.385 µM; in [5] it was 2.22 µM; in test [10], 1.5 µM; in test [7], 2.27 µM; in test [8], 1.66 µM.

With `COc1ccccc1C(=O)OCC1CCCN2CCCCC12` (stereo unspecified), the TGI in test [1] was more than 100 µM; in test [2], 42.2 µM; in test [3], 32.2 µM; in [4], more than 100 µM; in test [9], 61.6 µM; in [10], more than 100 µM. Moreover, the TGI in test [6] is more than 100 µM; in test [7], 65.7 µM; in [8], more than 100 µM.

For the molecule `Cc1cc(O)c2c(c1)C(C1c3cccc(O)c3C(=O)c3c(O)cc(C)cc31)c1cccc(O)c1C2=O` (stereo unspecified), the TGI in [1] worked out at 3.56 µM; in test [2], 16.6 µM; in test [3], 7.62 µM; in test [4], 1.25 µM; in [9], 1.73 µM; in test [5], 11.8 µM. The TGI was 2.81 µM in test [10], 0.692 µM in test [6], 12.6 µM in test [7] and 1.78 µM in test [8].

`O=C1C(=C([O-])c2ccccc2)C(=O)c2ccccc21.O=C1C(=C([O-])c2ccccc2)C(=O)c2ccccc21.[Ni+2]`: the GI50 in [2] was 58.9 µM; in [3], 77 µM; in test [4], 75.4 µM; in test [5] it was 13.4 µM; in test [6], 98 µM; in test [7], 62.2 µM. In addition, the GI50 in test [8] is 27.2 µM. The TGI in test [2], in test [3], in [4], in test [5], in test [6] and in test [7] was more than 100 µM throughout. The molecule also registered a TGI in test [8] of more than 100 µM.

Take `O=c1[nH]c(=O)n(C2CC(O)C(CO)O2)cc1Br` (stereo unspecified): the TGI in test [1], in [2], in [3], in [4], in [9] and in test [5] was more than 100 µM throughout. For the same molecule, the TGI in test [10], in test [6], in test [7] and in [8] was more than 100 µM in each case.

With `CC1OC(O[C@@H]2C=C3CC[C@@H]4[C@H](CC[C@]5(C)[C@@H](c6ccc(=O)oc6)CC[C@]45O)[C@@]3(C)CC2)C(O)C(OC2OC(CO)C(O)C(O)C2O)C1O` (stereo partly specified), the TGI in test [1] is 0.00301 µM; in [2], 0.0422 µM; in test [3], 0.0878 µM and 0.349 µM; in test [4], 0.0143 µM; in [9], 0.0196 µM; in [5] it was 0.039 µM and 0.0523 µM. The TGI in [10] was 0.00942 µM; in test [6] it was 0.0409 µM and 0.0257 µM; in test [7], 0.0867 µM; in [8] it was 0.00316 µM and 0.0263 µM. The GI50 was 0.000628 µM in [4], 0.000388 µM in [9], 0.000256 µM in test [5] and 0.000866 µM in [6].

As for `COc1cc(O)c(Cc2ccccc2O)c(O)c1C(=O)CCc1ccccc1`, the TGI in test [2] is 19.8 µM; in [3], 33.4 µM; in test [4], 15.8 µM; in test [5] it was 21.8 µM; in test [6], 12.8 µM; in [7], 27.2 µM. Besides, the TGI in [8] is 23.4 µM.

In the case of `NC(=O)/N=C/c1c(O)c2ccccc2oc1=O`, the TGI in test [1], in test [2], in test [3], in [5], in test [6] and in test [7] was more than 100 µM each time. For the same molecule, in test [8], the TGI was more than 100 µM.
